These results are taken from paper PMC6837341, “Evolutionarily conserved susceptibility of the mitochondrial respiratory chain to SDHI pesticides and its consequence on the impact of SDHIs on human cultured cells” (PLoS ONE, 2019).

Read-outs that look alike come from different tables or passages of the source.

Common to all, as to format: biochemical
Experiment [1] deals with succinate cytochrome c reductase (SDH+CIII). The experiment can be described thus: SCCR activity, earthworm homogenate. As to conditions: Lumbricus terrestris homogenate. As to the method:
L. terrestris individuals (n = 5) were collected manually in a household compost in Epernon (France 28230) and identified by the person (Paule Bénit) in charge of this compost. Before use, the worms were washed 5 times with 1× phosphate-buffered saline. A fresh homogenate was prepared from the segments located between the prostomium and clitellum of the 5 individuals. Tissues were placed in 500 μl of an ice-cold medium consisting of 20 mM Tris (pH 7.2), 0.25 M sucrose, 40 mM KCl, 2 mM EGTA, and 1 mg/ml BSA and homogenized using a 1-ml glass-glass Potter-Elvehjem homogenizer. Low-speed centrifugation at 1,500 g for 5 min allowed heavy debris to be discarded. The supernatant was distributed as 50-μl aliquots and kept frozen at -80°C.
(§1) RC enzyme activities were spectrophotometrically measured using a pseudo-double-wavelength spectrophotometer (Cary 60, Agilent). Malonate-sensitive succinate quinone dichlorophenolindophenol (DCPIP) reductase (SQDR), as an indicator of the activity of the isolated SDH enzyme (isolated CII), and glycerol-3-phosphate quinone DCPIP reductase (GQDR), as a measure of the activity of the isolated glycerol-3-phosphate dehydrogenase (G3PDH), were assayed as previously described. […] With this aim, we measured the malonate-sensitive succinate cytochrome c reductase (SDH+CIII), glycerol-3-phosphate cytochrome c reductase (G3PDH+CIII) and antimycin-sensitive quinol cytochrome c reductase (CIII) as previously described.
(§2) The effects of eight different SDHIs (up to 500 μM; S2 Fig) were determined on four different biological materials. Because IC50 are known to be affected by the actual absolute activity of the tested enzyme, these IC50 were quantified using similar levels of SDH enzyme activity during the assay. IC50 values were determined using the AAT Bioquest IC50 calculator tool (https://www.aatbio.com/tools/ic50-calculator).

Experiment [2] concerns the target T1, quinol cytochrome c reductase (CIII) (Botrytis cinerea, UniProt Q18ND9).
T1 sequence (Q18ND9 1-391): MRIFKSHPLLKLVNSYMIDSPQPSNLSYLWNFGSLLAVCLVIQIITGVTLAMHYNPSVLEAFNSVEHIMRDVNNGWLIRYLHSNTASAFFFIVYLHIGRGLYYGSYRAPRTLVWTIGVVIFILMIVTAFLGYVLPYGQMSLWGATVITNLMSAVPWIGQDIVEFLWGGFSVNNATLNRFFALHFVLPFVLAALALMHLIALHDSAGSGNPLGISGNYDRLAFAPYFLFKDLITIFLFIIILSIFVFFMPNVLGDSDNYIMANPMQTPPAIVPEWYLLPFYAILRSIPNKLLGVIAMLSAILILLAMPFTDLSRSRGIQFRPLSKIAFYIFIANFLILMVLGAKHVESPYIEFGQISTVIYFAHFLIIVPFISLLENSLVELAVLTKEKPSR
The experiment can be described thus: QCCR activity, Botrytis cinerea mitochondria. As to the method: The mixed population of B. cinerea fungi used in this study was kindly provided by Dr. Joelle Dupont (Museum National d’Histoire Naturelle, Paris, France). Conidia from Botrytis cinerea were obtained from 15–30 d cultures grown on malt medium agar plates. Mycelial colonies were prepared by seeding conidia from 10 colonies in liquid medium (10 g of glucose, 2 g of KH2PO4, 0.5 g of MgSO47H2O, 1 g of (NH4)2SO4, 2 g of yeast extract and deionized water up to 1 l, pH 6.2). Incubation was performed at 23°C until hyphae totally covered the surface of the bottle. The hyphae (9-cm-diameter disks) were harvested, washed twice with refrigerated distilled water and finally with mitochondria extraction medium containing 20 mM Tris (pH 7.2), 0.25 M sucrose, 40 mM KCl, 2 mM EGTA, 1 mg/ml BSA, and no cysteine. The hyphae were suspended in 150 ml of extraction medium, cut in small pieces (1 cm^2) and then disrupted at high speed for 1×2 sec and at low speed for 2×3 sec using a MultiMoulinex mixer (Moulinex, France). The suspension of disrupted hyphae was then filtered through two layers of nylon cloth (clearance 150 μm). The cloth was washed with 50 ml of extraction medium. After low-speed centrifugation (700 g for 15 min), the mitochondria were collected at 10,000 g for 20 min. The pellet was suspended in 250 μl of extraction medium, aliquoted (± 30 μl) and kept frozen at -80°C.
as §1, §2

The target in experiment [3] is T2, glycerol-3-phosphate cytochrome c reductase (G3PDH+CIII) (Homo sapiens, UniProt P00156).
T2 construct: the pellets were permeabilized by two freeze-thaw cycles before enzyme assays; endogenous in cells; host or cells: HEK293, freeze-thawed cell pellets
The experiment can be described thus: Glycerol-3-phosphate cytochrome c reductase (GCCR) activity, freeze-thawed HEK cells. As to the method:
The cells were grown in T75 flasks using 10 ml Dulbecco’s modified Eagle's minimal essential medium (DMEM) either containing 1 or 4.5 g/l glucose, 4 mM glutamine (glutamax; Gibco Thermo Fisher Scientific, MA), 2 mM pyruvate and 200 μM uridine (permissive medium, thereafter referred as GlucoMax) or lacking glucose, pyruvate and uridine but containing 4 mM glutamine (nonpermissive medium, thereafter referred as MitoMax; S1 Table). All media were supplemented with 10% fetal calf serum and 100 U/mL each penicillin and streptomycin. HEK293 human embryonic kidney cells were cultured in DMEM containing 4.5 g/L glucose, 4 mM glutamine, 10% fetal calf serum, 200 μM uridine, 2 mM pyruvate, and 100 U/mL each penicillin and streptomycin [9]. Cell pellets (1,500 g for 5 min) were kept frozen (-80°C), and for biochemical studies, the pellets were permeabilized by two freeze-thaw cycles before enzyme assays.
RC enzyme activities were spectrophotometrically measured using a pseudo-double-wavelength spectrophotometer (Cary 60, Agilent). Malonate-sensitive succinate quinone dichlorophenolindophenol (DCPIP) reductase (SQDR), as an indicator of the activity of the isolated SDH enzyme (isolated CII), and glycerol-3-phosphate quinone DCPIP reductase (GQDR), as a measure of the activity of the isolated glycerol-3-phosphate dehydrogenase (G3PDH), were assayed as previously described. To study the effect of SDHIs on the RC, we had to take into consideration the fact that these inhibitors act through binding to quinone-binding sites in the RC. Accordingly, we observed that the extent of the inhibitory effects of these substances varies with the addition of exogenous quinones (Fig 1). […] With this aim, we measured the malonate-sensitive succinate cytochrome c reductase (SDH+CIII), glycerol-3-phosphate cytochrome c reductase (G3PDH+CIII) and antimycin-sensitive quinol cytochrome c reductase (CIII) as previously described.
as §2

The mark [4] stands for this setting: CIII values only indicative, read-out: IC50 QCCR.
Where [5] appears, read: Homo sapiens, freeze-thawed HEK cells, read-out: IC50 GCCR.
The mark [6] stands for this setting: read-out: IC50 QCCR, CIII values only indicative.

On to `Cn1cc(C(=O)Nc2ccc(F)cc2-c2ccc(Cl)c(Cl)c2)c(C(F)F)n1` [Bixafen, bixafen], for which the values for the IC50 in experiment [1], in experiment [2] (setting [4]) and in experiment [3] (setting [5]) were 6 µM, 22.2 µM and 21.1 µM, respectively.

For `Cc1nn(C)c(F)c1C(=O)Nc1ccccc1C(C)CC(C)C` (stereo not drawn) [Penflufen, penflufen], the IC50 was 1.13 µM in experiment [1], 433 µM in experiment [2] (setting [4]) and greater than 500 µM in experiment [3] (setting [5]).

Turning to `CC(C)Oc1cccc(NC(=O)c2ccccc2C(F)(F)F)c1` [Flutolanil, flutolanil], the IC50 is 0.36 µM in experiment [1], greater than 500 µM in experiment [2] (setting [6]) and greater than 500 µM in experiment [3] (setting [5]).

Turning to `CC(C)CC(C)c1sccc1NC(=O)c1cn(C)nc1C(F)(F)F` (stereo not drawn) [Penthiopyrad, penthiopyrad], the IC50 in experiment [1] amounted to 0.7 µM; in experiment [2] (setting [6]), 105 µM; in experiment [3], 211 µM.

As for `Cn1cc(C(=O)Nc2ccccc2-c2cc(F)c(F)c(F)c2)c(C(F)F)n1` [Fluxapyroxad, fluxapyroxad], the IC50 in experiment [1] is 0.71 µM; in experiment [2] (setting [4]) it was 67 µM; in experiment [3] (setting [5]) it was greater than 500 µM.

`CC(C)C1C2CCC1c1c(NC(=O)c3cn(C)nc3C(F)F)cccc12` (stereo not drawn) [Isopyrazam, isopyrazam]: the IC50 was determined as 0.46 µM in experiment [1], 14.2 µM in experiment [2] (setting [4]) and 51.3 µM in experiment [3] (setting [5]).

Consider `O=C(Nc1ccccc1-c1ccc(Cl)cc1)c1cccnc1Cl` [Boscalid, boscalid], for which the IC50 was 0.5 µM in experiment [1], greater than 500 µM in experiment [2] (setting [6]) and greater than 500 µM in experiment [3].

As a reminder, the IC50 is the concentration needed to halve the response being measured.
